According to patent US20070203073A1 (priority 2005, published 2007):

System: SARS-CoV S protein
Assay type: cell-based

CC(=O)N[C@@H](CC(C)C)C(=O)N[C@@H](CC(C)C)C(=O)N[C@H](C=O)CCCNC(=N)N [leupeptin]
effect on cell-cell fusion: reduced
